In the NIST ThermoML archive (doi:10.1016/j.jct.2005.07.009):

Tests used:
[1] = 295.15 K; 101.33 kPa; Liquid; Vibrating tube method
[2] = refractive index (Na D-line) (dimensionless); conditions: 298.15 K; 101.33 kPa; Liquid; Standard Abbe refractometry
[3] = excess molar enthalpy (molar enthalpy of mixing); xn = mol fraction of the nth substance listed; conditions: 298.15 K, 101 kPa, Liquid
[4] = xn = mol fraction of the nth substance listed; conditions: 298.15 K, 101 kPa, Liquid, Vibrating tube method

BrCCBr [1,2-dibromoethane]
Conditions | mass density [kg/m3] | refractive index
[1] | 2168.3 | –
[2] | – | 1.5357

BrCCCBr [1,3-dibromopropane]
Conditions | mass density [kg/m3] | refractive index
[1] | 1970.25 | –
[2] | – | 1.5204

BrCCCCBr [1,4-dibromobutane]
Conditions | mass density [kg/m3] | refractive index
[1] | 1819.44 | –
[2] | – | 1.5163

BrCCCCCBr [1,5-dibromopentane]
Conditions | mass density [kg/m3] | refractive index
[1] | 1694.09 | –
[2] | – | 1.5099

BrCCCCCBr [1,5-dibromopentane] + CCOC(=O)CC
Conditions | excess molar enthalpy [kcal/mol] | mass density [kg/m3]
[3], x2 = 0.0603 | 0.00839 | –
[3], x2 = 0.1247 | 0.0137 | –
[3], x2 = 0.193 | 0.0172 | –
[3], x2 = 0.261 | 0.0185 | –
[3], x2 = 0.3249 | 0.0179 | –
[3], x2 = 0.3861 | 0.0152 | –
[3], x2 = 0.4412 | 0.0111 | –
[3], x2 = 0.4896 | 0.007 | –
[3], x2 = 0.5244 | 0.00378 | –
[3], x2 = 0.5365 | 0.00325 | –
[3], x2 = 0.5747 | -0.000717 | –
[3], x2 = 0.5773 | -0.00105 | –
[3], x2 = 0.6302 | -0.00359 | –
[3], x2 = 0.6884 | -0.00526 | –
[3], x2 = 0.752 | -0.00629 | –
[3], x2 = 0.8187 | -0.00576 | –
[3], x2 = 0.8848 | -0.00461 | –
[3], x2 = 0.9461 | -0.00289 | –
[4], x2 = 0.1344 | – | 1600.12
[4], x2 = 0.2009 | – | 1552.01
[4], x2 = 0.263 | – | 1506.12
[4], x2 = 0.3276 | – | 1457.5
[4], x2 = 0.3859 | – | 1412.68
[4], x2 = 0.4471 | – | 1364.74
[4], x2 = 0.5096 | – | 1314.84
[4], x2 = 0.6206 | – | 1223.48
[4], x2 = 0.6836 | – | 1170.2
[4], x2 = 0.7919 | – | 1075.76
[4], x2 = 0.8414 | – | 1031.42
[4], x2 = 0.8957 | – | 981.96

BrCCCCCBr [1,5-dibromopentane] + CCOC(C)=O
Conditions | excess molar enthalpy [kcal/mol] | mass density [kg/m3]
[3], x2 = 0.0775 | 0.0259 | –
[3], x2 = 0.1619 | 0.0431 | –
[3], x2 = 0.2431 | 0.0561 | –
[3], x2 = 0.3197 | 0.0639 | –
[3], x2 = 0.3909 | 0.0676 | –
[3], x2 = 0.4536 | 0.0674 | –
[3], x2 = 0.5079 | 0.0658 | –
[3], x2 = 0.5103 | 0.0652 | –
[3], x2 = 0.5486 | 0.0622 | –
[3], x2 = 0.5612 | 0.062 | –
[3], x2 = 0.5934 | 0.0591 | –
[3], x2 = 0.6025 | 0.0577 | –
[3], x2 = 0.6413 | 0.053 | –
[3], x2 = 0.6919 | 0.0458 | –
[3], x2 = 0.7451 | 0.0375 | –
[3], x2 = 0.7998 | 0.0284 | –
[3], x2 = 0.8546 | 0.0198 | –
[3], x2 = 0.9082 | 0.012 | –
[3], x2 = 0.9563 | 0.00528 | –
[4], x2 = 0.0866 | – | 1642.62
[4], x2 = 0.1624 | – | 1595.36
[4], x2 = 0.2251 | – | 1554.67
[4], x2 = 0.2991 | – | 1504.62
[4], x2 = 0.3623 | – | 1460.11
[4], x2 = 0.4225 | – | 1416.21
[4], x2 = 0.5458 | – | 1321
[4], x2 = 0.6601 | – | 1225.85
[4], x2 = 0.765 | – | 1131.91
[4], x2 = 0.8611 | – | 1039.57
[4], x2 = 0.9561 | – | 941.92

BrCCCCCBr [1,5-dibromopentane] + CCOC=O
Conditions | excess molar enthalpy [kcal/mol] | mass density [kg/m3]
[3], x2 = 0.0896 | 0.0659 | –
[3], x2 = 0.1866 | 0.108 | –
[3], x2 = 0.279 | 0.138 | –
[3], x2 = 0.3638 | 0.157 | –
[3], x2 = 0.4389 | 0.166 | –
[3], x2 = 0.5051 | 0.169 | –
[3], x2 = 0.5631 | 0.166 | –
[3], x2 = 0.6125 | 0.158 | –
[3], x2 = 0.6372 | 0.153 | –
[3], x2 = 0.6548 | 0.149 | –
[3], x2 = 0.6837 | 0.142 | –
[3], x2 = 0.6928 | 0.139 | –
[3], x2 = 0.7324 | 0.128 | –
[3], x2 = 0.7827 | 0.108 | –
[3], x2 = 0.831 | 0.088 | –
[3], x2 = 0.8797 | 0.065 | –
[3], x2 = 0.9254 | 0.0385 | –
[3], x2 = 0.966 | 0.0136 | –
[4], x2 = 0.089 | – | 1651.25
[4], x2 = 0.1775 | – | 1605.2
[4], x2 = 0.2567 | – | 1560.84
[4], x2 = 0.3412 | – | 1509.84
[4], x2 = 0.4134 | – | 1463.17
[4], x2 = 0.5374 | – | 1374.43
[4], x2 = 0.7024 | – | 1237.83
[4], x2 = 0.7951 | – | 1149.61
[4], x2 = 0.8844 | – | 1054.85
[4], x2 = 0.9227 | – | 1010.83

BrCCCCCCBr [1,6-dibromohexane]
Conditions | mass density [kg/m3] | refractive index
[1] | 1601.8 | –
[2] | – | 1.506

BrCCCCCCBr [1,6-dibromohexane] + CCCC(=O)OCC
Conditions | excess molar enthalpy [kcal/mol] | mass density [kg/m3]
[3], x2 = 0.0629 | 0.00655 | –
[3], x2 = 0.1341 | 0.0105 | –
[3], x2 = 0.2059 | 0.0133 | –
[3], x2 = 0.2734 | 0.014 | –
[3], x2 = 0.3411 | 0.0136 | –
[3], x2 = 0.4017 | 0.0124 | –
[3], x2 = 0.4524 | 0.0103 | –
[3], x2 = 0.4952 | 0.00796 | –
[3], x2 = 0.5312 | 0.00562 | –
[3], x2 = 0.5662 | 0.00308 | –
[3], x2 = 0.6022 | 0.000191 | –
[3], x2 = 0.6161 | -0.000359 | –
[3], x2 = 0.6589 | -0.00213 | –
[3], x2 = 0.7115 | -0.00304 | –
[3], x2 = 0.7699 | -0.00366 | –
[3], x2 = 0.8324 | -0.00347 | –
[3], x2 = 0.8956 | -0.00213 | –
[3], x2 = 0.9514 | -0.000884 | –
[4], x2 = 0.0741 | – | 1554.45
[4], x2 = 0.1407 | – | 1511.27
[4], x2 = 0.2026 | – | 1470.35
[4], x2 = 0.2669 | – | 1427.12
[4], x2 = 0.3292 | – | 1384.45
[4], x2 = 0.4493 | – | 1300.05
[4], x2 = 0.5934 | – | 1194.98
[4], x2 = 0.6267 | – | 1170.08
[4], x2 = 0.6854 | – | 1125.55
[4], x2 = 0.7302 | – | 1091.1
[4], x2 = 0.7843 | – | 1048.89
[4], x2 = 0.8939 | – | 961.41
